Tested on: brain of rats subjected to severe traumatic brain injury (sTBI)
Assay: Ingenuity pathway analysis of differentially regulated genes after sTBI (canonical pathways, diseases and molecular functions; Example 4)
Design: species or system rat
Details: TBI + 5 mg/kg LMW-DS
Protocol: Pathway analysis of the differentially regulated genes was carried out using the Ingenuity pathway analysis package. The analysis was performed with special reference to pathways and molecular processes and diseases associated with neurodegenerative disease, including dementia, Alzheimer's disease, ALS, TBI and stroke, and with scarring and fibrosis, including glaucoma and normal pressure hydrocephalus (NPH) after subarachnoid haemorrhage.

[1] = 7 days after TBI, relative to control

sodium salt of dextran sulfate [LMW-DS]
Effect on diseases or functions annotation: Resorption of bone (2 days after TBI): Inhibited
Effect on diseases or functions annotation: Secretion of molecule (2 days after TBI): Activated
Effect on diseases or functions annotation: Size of body (2 days after TBI): Inhibited
Effect on diseases or functions annotation: Synthesis of hormone (2 days after TBI): Inhibited
Effect on diseases or functions annotation: Transcription of RNA (2 days after TBI): Inhibited
Effect on diseases or functions annotation: Transport of molecule (2 days after TBI): Activated
Effect on diseases or functions annotation: Vasculogenesis (2 days after TBI): Inhibited
z score, Ingenuity canonical pathway: Acute Phase Response Signaling [1]: 1.89
z score, Ingenuity canonical pathway: Adrenomedullin signaling pathway [1]: −0.632
z score, Ingenuity canonical pathway: Cardiac Hypertrophy Signaling [1]: 1
z score, Ingenuity canonical pathway: Colorectal Cancer Metastasis Signaling [1]: −0.378
z score, Ingenuity canonical pathway: Dendritic Cell Maturation [1]: 1.897
z score, Ingenuity canonical pathway: ERK5 Signaling [1]: −0.447
z score, Ingenuity canonical pathway: ERK/MAPK Signaling [1]: 1
z score, Ingenuity canonical pathway: Endothelin-1 Signaling [1]: 1.633
z score, Ingenuity canonical pathway: Fcγ Receptor-mediated Phagocytosis in Macrophages and Monocytes [1]: 2.236
z score, Ingenuity canonical pathway: GNRH Signaling [1]: 2
z score, Ingenuity canonical pathway: HMGB1 Signaling [1]: 1.134
z score, Ingenuity canonical pathway: IL-1 Signaling [1]: 1
z score, Ingenuity canonical pathway: IL-6 Signaling [1]: 1
z score, Ingenuity canonical pathway: IL-8 Signaling [1]: 2.646
z score, Ingenuity canonical pathway: ILK Signaling [1]: 1.89
z score, Ingenuity canonical pathway: Leukocyte Extravasation Signaling [1]: 1.342
z score, Ingenuity canonical pathway: Neuroinflammation Signaling Pathway [1]: 1.941
z score, Ingenuity canonical pathway: Osteoarthritis Pathway [1]: -1
z score, Ingenuity canonical pathway: PI3K Signaling in B Lymphocytes [1]: 1.89
z score, Ingenuity canonical pathway: PKCθ Signaling in T Lymphocytes [1]: 2
z score, Ingenuity canonical pathway: PPAR Signaling [1]: −1.342
z score, Ingenuity canonical pathway: Phospholipase C Signaling [1]: 1
z score, Ingenuity canonical pathway: Production of Nitric Oxide and Reactive Oxygen Species in Macrophages [1]: 2.236
z score, Ingenuity canonical pathway: Protein Kinase A Signaling [1]: −1.342
z score, Ingenuity canonical pathway: Role of NFAT in Regulation of the Immune Response [1]: 2.53
z score, Ingenuity canonical pathway: Signaling by Rho Family GTPases [1]: 1
z score, Ingenuity canonical pathway: Synaptic Long Term Depression [1]: 1
z score, Ingenuity canonical pathway: Wnt/β-catenin Signaling [1]: −1
z score, Ingenuity canonical pathway: cAMP-mediated signaling [1]: −2
z score, Ingenuity canonical pathway: mTOR Signaling [1]: 1
Diseases or functions annotation: Abdominal adenocarcinoma (7 days after TBI): Activated
Diseases or functions annotation: Abdominal cancer (7 days after TBI): Inhibited
Diseases or functions annotation: Abdominal carcinoma (7 days after TBI): Inhibited
Diseases or functions annotation: Abdominal neoplasm (7 days after TBI): Activated
Diseases or functions annotation: Adenocarcinoma (7 days after TBI): Inhibited
Diseases or functions annotation: Angiogenesis (7 days after TBI): Activated
Diseases or functions annotation: Apoptosis (7 days after TBI): Inhibited
Diseases or functions annotation: Apoptosis of tumor cell lines (7 days after TBI): Inhibited
Diseases or functions annotation: Bleeding (7 days after TBI): Inhibited
Diseases or functions annotation: Breast or colorectal cancer (7 days after TBI): Inhibited
Diseases or functions annotation: Breast or ovarian cancer (7 days after TBI): Inhibited
Diseases or functions annotation: Breast or pancreatic cancer (7 days after TBI): Inhibited
Diseases or functions annotation: Cancer (7 days after TBI): Activated
Diseases or functions annotation: Cancer of cells (7 days after TBI): Activated
Diseases or functions annotation: Cancer of secretory structure (7 days after TBI): Activated
Diseases or functions annotation: Carcinoma (7 days after TBI): Inhibited
Diseases or functions annotation: Cell cycle progression (7 days after TBI): Activated
Diseases or functions annotation: Cell death (7 days after TBI): Activated
Diseases or functions annotation: Cell death of epithelial cells (7 days after TBI): Activated
Diseases or functions annotation: Cell death of tumor cell lines (7 days after TBI): Inhibited
Diseases or functions annotation: Cell movement (7 days after TBI): Activated
Diseases or functions annotation: Cell movement of endothelial cells (7 days after TBI): Activated
Diseases or functions annotation: Cell movement of myeloid cells (7 days after TBI): Activated
Diseases or functions annotation: Cell movement of tumor cell lines (7 days after TBI): Activated
Diseases or functions annotation: Cell survival (7 days after TBI): Activated
Diseases or functions annotation: Cell viability (7 days after TBI): Activated
Diseases or functions annotation: Cell viability of tumor cell lines (7 days after TBI): Activated
Diseases or functions annotation: Cellular homeostasis (7 days after TBI): Activated
Diseases or functions annotation: Chemotaxis (7 days after TBI): Activated
Diseases or functions annotation: Concentration of lipid (7 days after TBI): Inhibited
Diseases or functions annotation: Development of body axis (7 days after TBI): Activated
Diseases or functions annotation: Development of body trunk (7 days after TBI): Activated
Diseases or functions annotation: Development of connective tissue cells (7 days after TBI): Activated
Diseases or functions annotation: Development of epithelial tissue (7 days after TBI): Activated
Diseases or functions annotation: Development of genitourinary system (7 days after TBI): Inhibited
Diseases or functions annotation: Development of head (7 days after TBI): Activated
Diseases or functions annotation: Development of neurons (7 days after TBI): Activated
Diseases or functions annotation: Development of sensory organ (7 days after TBI): Activated
Diseases or functions annotation: Development of vasculature (7 days after TBI): Activated
Diseases or functions annotation: Differentiation of bone (7 days after TBI): Activated
Diseases or functions annotation: Differentiation of bone cells (7 days after TBI): Activated
Diseases or functions annotation: Differentiation of connective tissue cells (7 days after TBI): Activated
Diseases or functions annotation: Digestive organ tumor (7 days after TBI): Inhibited
Diseases or functions annotation: Digestive system cancer (7 days after TBI): Inhibited
Diseases or functions annotation: Endocrine gland tumor (7 days after TBI): Inhibited
Diseases or functions annotation: Expression of RNA (7 days after TBI): Activated
Diseases or functions annotation: Extracranial solid tumor (7 days after TBI): Activated
Diseases or functions annotation: Failure of kidney (7 days after TBI): Activated
Diseases or functions annotation: Formation of eye (7 days after TBI): Activated
Diseases or functions annotation: Gastrointestinal tumor (7 days after TBI): Inhibited
Diseases or functions annotation: Genital tumor (7 days after TBI): Activated
Diseases or functions annotation: Genitourinary carcinoma (7 days after TBI): Activated
Diseases or functions annotation: Genitourinary tumor (7 days after TBI): Activated
Diseases or functions annotation: Glucose metabolism disorder (7 days after TBI): Activated
Diseases or functions annotation: Growth of connective tissue (7 days after TBI): Inhibited
Diseases or functions annotation: Growth of epithelial tissue (7 days after TBI): Inhibited
Diseases or functions annotation: Growth of tumor (7 days after TBI): Activated
Diseases or functions annotation: Head and neck cancer (7 days after TBI): Inhibited
Diseases or functions annotation: Head and neck tumor (7 days after TBI): Inhibited
Diseases or functions annotation: Hematologic cancer (7 days after TBI): Inhibited
Diseases or functions annotation: Hematologic cancer of cells (7 days after TBI): Inhibited
Diseases or functions annotation: Hematopoietic neoplasm (7 days after TBI): Inhibited
Diseases or functions annotation: Intestinal tumor (7 days after TBI): Inhibited
Diseases or functions annotation: Invasion of cells (7 days after TBI): Activated
Diseases or functions annotation: Leukocyte migration (7 days after TBI): Activated
Diseases or functions annotation: Lymphatic system tumor (7 days after TBI): Inhibited
Diseases or functions annotation: Lymphocytic cancer (7 days after TBI): Inhibited
Diseases or functions annotation: Lymphocytic neoplasm (7 days after TBI): Inhibited
Diseases or functions annotation: Lymphoid cancer (7 days after TBI): Inhibited
Diseases or functions annotation: Lymphoma (7 days after TBI): Inhibited
Diseases or functions annotation: Lymphoproliferative disorder (7 days after TBI): Inhibited
Diseases or functions annotation: Lymphoreticular neoplasm (7 days after TBI): Inhibited
Diseases or functions annotation: Malignant genitourinary solid tumor (7 days after TBI): Activated
Diseases or functions annotation: Malignant solid tumor (7 days after TBI): Activated
Diseases or functions annotation: Microtubule dynamics (7 days after TBI): Activated
Diseases or functions annotation: Migration of cells (7 days after TBI): Activated
Diseases or functions annotation: Migration of endothelial cells (7 days after TBI): Activated
Diseases or functions annotation: Morbidity or mortality (7 days after TBI): Inhibited
Diseases or functions annotation: Necrosis (7 days after TBI): Activated
Diseases or functions annotation: Necrosis of epithelial tissue (7 days after TBI): Activated
Diseases or functions annotation: Neoplasia of cells (7 days after TBI): Activated
Diseases or functions annotation: Neoplasia of leukocytes (7 days after TBI): Inhibited
Diseases or functions annotation: Non-hematological solid tumor (7 days after TBI): Activated
Diseases or functions annotation: Non-melanoma solid tumor (7 days after TBI): Activated
Diseases or functions annotation: Nonhematologic malignant neoplasm (7 days after TBI): Inhibited
Diseases or functions annotation: Obesity (7 days after TBI): Activated
Diseases or functions annotation: Organismal death (7 days after TBI): Inhibited
Diseases or functions annotation: Organization of cytoskeleton (7 days after TBI): Activated
Diseases or functions annotation: Pelvic tumor (7 days after TBI): Activated
Diseases or functions annotation: Peripheral vascular disease (7 days after TBI): Activated
Diseases or functions annotation: Proliferation of connective tissue cells (7 days after TBI): Inhibited
Diseases or functions annotation: Proliferation of epithelial cells (7 days after TBI): Inhibited
Diseases or functions annotation: Quantity of cells (7 days after TBI): Activated
Diseases or functions annotation: Quantity of connective tissue (7 days after TBI): Activated
Diseases or functions annotation: Renal impairment (7 days after TBI): Activated
Diseases or functions annotation: Secretion of molecule (7 days after TBI): Activated
Diseases or functions annotation: Sensory system development (7 days after TBI): Inhibited
Diseases or functions annotation: Size of body (7 days after TBI): Activated
Diseases or functions annotation: Skin lesion (7 days after TBI): Inhibited
Diseases or functions annotation: Skin tumor (7 days after TBI): Inhibited
Diseases or functions annotation: Solid tumor (7 days after TBI): Activated
Diseases or functions annotation: Synthesis of lipid (7 days after TBI): Activated
Diseases or functions annotation: Transcription (7 days after TBI): Activated
Diseases or functions annotation: Transcription of RNA (7 days after TBI): Activated
Diseases or functions annotation: Transport of molecule (7 days after TBI): Activated
Diseases or functions annotation: Tumorigenesis of tissue (7 days after TBI): Inhibited
Diseases or functions annotation: Vasculogenesis (7 days after TBI): Activated
